Measured values published in patent US6355799B1, “Substituted benzene compounds, process for their preparation, and herbicidal and defoliant compositions containing them” (ISK Americas Incorporated, priority 1997, dated 2002).

Legend:
Type in all cases: in vivo
[1] = system: redroot pigweed (Amaranthus retroflexus, AMARE); assay: Pre-emerge test, greenhouse herbicide activity screening; conditions: rating scale 0-100, 14 days after application
Excerpt: (§1) A standard greenhouse herbicide activity screening system was used to evaluate the herbicidal efficacy and crop safety of these test compounds. Seven broadleaf weed species including redroot pigweed (Amaranthus retroflexus, AMARE, velvetleaf (Abutilon theophrasti, ABUTH), sicklepod (Cassia obtusifolia, CASOB), ivyleaf morningglory (Ipomoea hederacea, IPOHE), lambsquarters (Chenopodium album, CHEAL), common ragweed (Ambrosia artemisizfolia L., AMBEL), and cocklebur (Xanthium strumarium, XANST) were used as test species. Four grass weed species including green foxtail (Setaria viridis, SETVI), barnyardgrass (Echinochloa crus-galli, ECHCG), johnsongrass (Sorghum halepense, SORHA), and large crabgrass (Digitaria sanguinalis, DIGSA) were also used. In addition, three crop species, field corn (Zea mays L., var. Dekalb 535, CORN), soybean (Glycine max L., var. Pella 86, SOY), and is upland rice (Oryza sp., var. Tebonnet, RICE) were included.
(§2) All plants were grown in 10 cm square plastic pots which were filled with a sandy loam soil mix. For pre-emerge tests, seeds were planted one day prior to application of the test compounds. For post-emerge tests, seeds were planted 8-21 days prior to the test to allow emergence and good foliage development prior to application of the test substances. At the time of the post-emerge application, plants of all species were usually at the 2-3 leaf stage of development.
All test compounds Were dissolved in acetone and applied to the test units in a volume of 187 l /ha. […] Plants were arranged on a shelf so that the top of the canopy (post-emerge) or top of the soil surface (pre-emerge) was 40-45 cm below the nozzle. Pressurized air was used to force the test solution through the nozzle as it was mechanically advanced (via electrically driven chain drive) over the top of all test plants/pots. This application simulates a typical commercial field herbicide application.
(§3) In the post-emerge test, a commercial non-ionic surfactant was also included (0.25% v/v) to enhance wetting of the leaf surfaces of target plants. Immediately after application, test units of the pre-emerge applications were watered at the soil surface to incorporate the test materials. Subsequently, these test units were bottom-watered. Post-emerge test units were always bottom-watered.
(§4) At 14 days after application of the test materials, phytotoxicity ratings were recorded. A rating scale of 0-100 was used as previously described in Research Methods in Weed Science, 2nd edition, B. Truelove, Ed., Southern Weed Science Society, Auburn University, Auburn, Ala. 1977. Briefly, “0” corresponds to no damage and “100” corresponds to complete death of all plants in the test unit. This scale was used both to determine efficacy against weed species and damage to crop species. Herbicide activity data for various compounds of this invention, which are shown by compound No. in Tables 1-8, are shown in Tables 11 and 12.

[2] = system: barnyardgrass (Echinochloa crus-galli, ECHCG); assay: as above; conditions: rating scale 0-100, 14 days after application
Excerpt: as §1, §2
(§5) All test compounds Were dissolved in acetone and applied to the test units in a volume of 187 l /ha. Test materials were applied at rates ranging from 15 g ai/ha to 1000 g ai/ha using a track sprayer equipped with a TJ8001E even flow flat fan spray nozzle. Plants were arranged on a shelf so that the top of the canopy (post-emerge) or top of the soil surface (pre-emerge) was 40-45 cm below the nozzle. Pressurized air was used to force the test solution through the nozzle as it was mechanically advanced (via electrically driven chain drive) over the top of all test plants/pots. This application simulates a typical commercial field herbicide application.
as §3, §4

[3] = system: green foxtail (Setaria viridis, SETVI); assay: as above; conditions: rating scale 0-100, 14 days after application
Excerpt: as §1, §2, §5, §3, §4

[4] = system: ivyleaf morningglory (Ipomoea hederacea, IPOHE); assay: as above; conditions: rating scale 0-100, 14 days after application
Excerpt: as §1, §2, §5, §3, §4

[5] = system: lambsquarters (Chenopodium album, CHEAL); assay: as above; conditions: rating scale 0-100, 14 days after application
Excerpt: as §1, §2, §5, §3, §4

[6] = system: large crabgrass (Digitaria sanguinalis, DIGSA); assay: as above; conditions: rating scale 0-100, 14 days after application
Excerpt: as §1, §2, §5, §3, §4

[7] = system: sicklepod (Cassia obtusifolia, CASOB); assay: as above; conditions: rating scale 0-100, 14 days after application
Excerpt: as §1, §2, §5, §3, §4

[8] = system: velvetleaf (Abutilon theophrasti, ABUTH); assay: as above; conditions: rating scale 0-100, 14 days after application
Excerpt: as §1, §2, §5, §3, §4

[9] = system: barnyardgrass (Echinochloa crus-galli, ECHCG); assay: Post-emerge test, greenhouse herbicide activity screening; conditions: rating scale 0-100 (0 no damage, 100 complete death), 14 days after application
Excerpt: as §1, §2, §5, §3, §4

[10] = system: green foxtail (Setaria viridis, SETVI); assay: as above; conditions: rating scale 0-100 (0 no damage, 100 complete death), 14 days after application
Excerpt: as §1, §2, §5, §3, §4

[11] = system: ivyleaf morningglory (Ipomoea hederacea, IPOHE); assay: as above; conditions: rating scale 0-100 (0 no damage, 100 complete death), 14 days after application
Excerpt: as §1, §2, §5, §3, §4

[12] = system: lambsquarters (Chenopodium album, CHEAL); assay: as above; conditions: rating scale 0-100 (0 no damage, 100 complete death), 14 days after application
Excerpt: as §1, §2, §5, §3, §4

[13] = system: large crabgrass (Digitaria sanguinalis, DIGSA); assay: as above; conditions: rating scale 0-100 (0 no damage, 100 complete death), 14 days after application
Excerpt: as §1, §2, §5, §3, §4

[14] = system: redroot pigweed (Amaranthus retroflexus, AMARE); assay: as above; conditions: rating scale 0-100 (0 no damage, 100 complete death), 14 days after application
Excerpt: as §1, §2, §5, §3, §4

[15] = system: sicklepod (Cassia obtusifolia, CASOB); assay: as above; conditions: rating scale 0-100 (0 no damage, 100 complete death), 14 days after application
Excerpt: as §1, §2, §5, §3, §4

[16] = system: velvetleaf (Abutilon theophrasti, ABUTH); assay: as above; conditions: rating scale 0-100 (0 no damage, 100 complete death), 14 days after application
Excerpt: as §1, §2, §5, §3, §4

Structure (SMILES): CCOC(=O)C(Cl)Cc1c(OC)c(Cl)cc(F)c1-n1c(=O)cc(C(F)(F)F)n(C)c1=O (single isomer, unassigned) [Compound 14-4, 3-{4-chloro-2-[2-chloro-2-(ethoxycarbonyl)ethyl]-6-fluoro-3-methoxyphenyl}-1-methyl-6-trifluoromethyl-2,4(1H, 3H)-pyrimidinedione]
- Pre-emerge herbicidal activity, phytotoxicity rating AMARE ([1]; 63 g ai/ha): 90
- Pre-emerge herbicidal activity, phytotoxicity rating AMARE ([1]; 250 g ai/ha): 100
- Pre-emerge herbicidal activity, phytotoxicity rating ECHCG ([2]; 63 g ai/ha): 0
- Pre-emerge herbicidal activity, phytotoxicity rating ECHCG ([2]; 250 g ai/ha): 0
- Pre-emerge herbicidal activity, phytotoxicity rating SETVI ([3]; 63 g ai/ha): 10
- Pre-emerge herbicidal activity, phytotoxicity rating SETVI ([3]; 250 g ai/ha): 40
- Pre-emerge herbicidal activity, phytotoxicity rating IPOHE ([4]; 63 g ai/ha): 0
- Pre-emerge herbicidal activity, phytotoxicity rating IPOHE ([4]; 250 g ai/ha): 70
- Pre-emerge herbicidal activity, phytotoxicity rating CHEAL ([5]; 63 g ai/ha): 60
- Pre-emerge herbicidal activity, phytotoxicity rating CHEAL ([5]; 250 g ai/ha): 100
- Pre-emerge herbicidal activity, phytotoxicity rating DIGSA ([6]; 63 g ai/ha): 20
- Pre-emerge herbicidal activity, phytotoxicity rating DIGSA ([6]; 250 g ai/ha): 95
- Pre-emerge herbicidal activity, phytotoxicity rating CASOB ([7]; 63 g ai/ha): 20
- Pre-emerge herbicidal activity, phytotoxicity rating CASOB ([7]; 250 g ai/ha): 20
- Pre-emerge herbicidal activity, phytotoxicity rating ABUTH ([8]; 63 g ai/ha): 50
- Pre-emerge herbicidal activity, phytotoxicity rating ABUTH ([8]; 250 g ai/ha): 80
- Post-emerge Herbicidal Activity, phytotoxicity rating ECHCG ([9]; Rate 63 g ai/ha): 85
- Post-emerge Herbicidal Activity, phytotoxicity rating ECHCG ([9]; Rate 250 g ai/ha): 99
- Post-emerge Herbicidal Activity, phytotoxicity rating SETVI ([10]; Rate 63 g ai/ha): 30
- Post-emerge Herbicidal Activity, phytotoxicity rating SETVI ([10]; Rate 250 g ai/ha): 65
- Post-emerge Herbicidal Activity, phytotoxicity rating IPOHE ([11]; Rate 63 g ai/ha): 50
- Post-emerge Herbicidal Activity, phytotoxicity rating IPOHE ([11]; Rate 250 g ai/ha): 60
- Post-emerge Herbicidal Activity, phytotoxicity rating CHEAL ([12]; Rate 63 g ai/ha): 100
- Post-emerge Herbicidal Activity, phytotoxicity rating CHEAL ([12]; Rate 250 g ai/ha): 100
- Post-emerge Herbicidal Activity, phytotoxicity rating DIGSA ([13]; Rate 63 g ai/ha): 75
- Post-emerge Herbicidal Activity, phytotoxicity rating DIGSA ([13]; Rate 250 g ai/ha): 95
- Post-emerge Herbicidal Activity, phytotoxicity rating AMARE ([14]; Rate 63 g ai/ha): 100
- Post-emerge Herbicidal Activity, phytotoxicity rating AMARE ([14]; Rate 250 g ai/ha): 100
- Post-emerge Herbicidal Activity, phytotoxicity rating CASOB ([15]; Rate 63 g ai/ha): 50
- Post-emerge Herbicidal Activity, phytotoxicity rating CASOB ([15]; Rate 250 g ai/ha): 100
- Post-emerge Herbicidal Activity, phytotoxicity rating ABUTH ([16]; Rate 63 g ai/ha): 80
- Post-emerge Herbicidal Activity, phytotoxicity rating ABUTH ([16]; Rate 250 g ai/ha): 100

Structure (SMILES): CCOC(=O)C(Cl)Cc1c(OC)c(Cl)cc(F)c1-n1c(=O)cc(C(F)(F)F)n(C)c1=O (single isomer, unassigned) [Compound 14-5, 3-{4-chloro-2-[2-chloro-2-(ethoxycarbonyl)ethyl]-6-fluoro-3-methoxyphenyl}-1-methyl-6-trifluoromethyl-2,4(1H, 3H)-pyrimidinedione]
- Pre-emerge herbicidal activity, phytotoxicity rating AMARE ([1]; 63 g ai/ha): 70
- Pre-emerge herbicidal activity, phytotoxicity rating AMARE ([1]; 250 g ai/ha): 100
- Pre-emerge herbicidal activity, phytotoxicity rating ECHCG ([2]; 63 g ai/ha): 0
- Pre-emerge herbicidal activity, phytotoxicity rating ECHCG ([2]; 250 g ai/ha): 40
- Pre-emerge herbicidal activity, phytotoxicity rating SETVI ([3]; 63 g ai/ha): 10
- Pre-emerge herbicidal activity, phytotoxicity rating SETVI ([3]; 250 g ai/ha): 60
- Pre-emerge herbicidal activity, phytotoxicity rating IPOHE ([4]; 63 g ai/ha): 20
- Pre-emerge herbicidal activity, phytotoxicity rating IPOHE ([4]; 250 g ai/ha): 30
- Pre-emerge herbicidal activity, phytotoxicity rating CHEAL ([5]; 63 g ai/ha): 70
- Pre-emerge herbicidal activity, phytotoxicity rating CHEAL ([5]; 250 g ai/ha): 100
- Pre-emerge herbicidal activity, phytotoxicity rating DIGSA ([6]; 63 g ai/ha): 20
- Pre-emerge herbicidal activity, phytotoxicity rating DIGSA ([6]; 250 g ai/ha): 95
- Pre-emerge herbicidal activity, phytotoxicity rating CASOB ([7]; 63 g ai/ha): 0
- Pre-emerge herbicidal activity, phytotoxicity rating CASOB ([7]; 250 g ai/ha): 10
- Pre-emerge herbicidal activity, phytotoxicity rating ABUTH ([8]; 63 g ai/ha): 100
- Pre-emerge herbicidal activity, phytotoxicity rating ABUTH ([8]; 250 g ai/ha): 100
- Post-emerge Herbicidal Activity, phytotoxicity rating ECHCG ([9]; Rate 63 g ai/ha): 40
- Post-emerge Herbicidal Activity, phytotoxicity rating ECHCG ([9]; Rate 250 g ai/ha): 100
- Post-emerge Herbicidal Activity, phytotoxicity rating SETVI ([10]; Rate 63 g ai/ha): 60
- Post-emerge Herbicidal Activity, phytotoxicity rating SETVI ([10]; Rate 250 g ai/ha): 95
- Post-emerge Herbicidal Activity, phytotoxicity rating IPOHE ([11]; Rate 63 g ai/ha): 30
- Post-emerge Herbicidal Activity, phytotoxicity rating IPOHE ([11]; Rate 250 g ai/ha): 100
- Post-emerge Herbicidal Activity, phytotoxicity rating CHEAL ([12]; Rate 63 g ai/ha): 100
- Post-emerge Herbicidal Activity, phytotoxicity rating CHEAL ([12]; Rate 250 g ai/ha): 100
- Post-emerge Herbicidal Activity, phytotoxicity rating DIGSA ([13]; Rate 63 g ai/ha): 95
- Post-emerge Herbicidal Activity, phytotoxicity rating DIGSA ([13]; Rate 250 g ai/ha): 100
- Post-emerge Herbicidal Activity, phytotoxicity rating AMARE ([14]; Rate 63 g ai/ha): 100
- Post-emerge Herbicidal Activity, phytotoxicity rating AMARE ([14]; Rate 250 g ai/ha): 100
- Post-emerge Herbicidal Activity, phytotoxicity rating CASOB ([15]; Rate 63 g ai/ha): 10
- Post-emerge Herbicidal Activity, phytotoxicity rating CASOB ([15]; Rate 250 g ai/ha): 50
- Post-emerge Herbicidal Activity, phytotoxicity rating ABUTH ([16]; Rate 63 g ai/ha): 100
- Post-emerge Herbicidal Activity, phytotoxicity rating ABUTH ([16]; Rate 250 g ai/ha): 100
